From publication PMC12154426, “TPP-Based Nanovesicles Kill MDR Neuroblastoma Cells and Induce Moderate ROS Increase, While Exerting Low Toxicity Towards Primary Cell Cultures: An In Vitro Study” (International Journal of Molecular Sciences, 2025)
Read-outs that look alike come from different tables or passages of the source.

Legend:
Assay type in all cases: cell-based, human
HTLA ER [1] = assay: DCFH assay of ROS (H2O2) production, HTLA ER
Text: (§1) It has been reported that the administration of TPP-based compounds, including TPP-based bola amphiphilic nanovesicles such as BPPB, induce ROS overproduction, thus causing oxidative stress (OS), which has been widely reported to be involved in the anticancer effect of several chemotherapeutic drugs, including etoposide, doxorubicin [38], and cisplatin [39]. […] On the contrary, the role of ROS was scarcely present in PLX-resistant CMM cells exposed to the same concentrations of BPPB [13]. With these considerations, we evaluated ROS levels also in NB cells treated with BPPB, since this experiment would have been particularly helpful to understand whether (i) these nanovesicles’ preparation exerts its cytotoxic action on HTLA 230 and ER cells through ROS production, as in PLX-sensitive CMM cells; or (ii) the resistance acquired by HTLA ER based on high levels of antioxidants, following chronic treatment with etoposide, conferred resistance also to a preparation based on the use of nanovesicles (BPPBs). Moreover, the evaluation of ROS levels can be an indirect method to ascertain and confirm the presence of apoptosis, since as reported, low levels of ROS induce apoptosis and high levels induce necrosis.Therefore, to investigate the pro-oxidant action of BPPB also in HTLA 230 and HTLA ER NB cells, ROS levels were evaluated in both NB cell populations exposed for 24–72 h to increasing concentrations (0.1–2 µM) of BPPB using the DCFH essay (Figure 4). The results were reported as a percentage of cells positive to DCFH normalized for protein content. Raw fluorescence data are, in fact, not applicable since an increase in fluorescence could be due to a high number of cells but also to an increased production of H2O2 induced by the treatments. This is the reason why it is necessary to normalize the fluorescence data to the protein content. Other cellular assays measuring oxidative damage, including lipid peroxidation or protein carbonylation, are likely too complex for low-tier early hazard assessment or hazard screening. Conversely, the cellular DCFH assay is a simpler and widely used alternative, which measures intracellular ROS production by forming a fluorescent product (DCF) upon oxidation by free radicals produced by cells.
(§2) The production of H2O2 was evaluated using 2′-7′-dichlorofluorescein-diacetate (DCFH-DA; Merk Life Science S.r.l. Milan, Italy), as previously reported. Briefly, NB cells (10^4 cells/well) were seeded in 96-well plates (Corning) and treated. Then, cells were stained with 2′-7′ di-chloro-fluorescein-diacetate (DCFH-DA; Sigma-Aldrich) and incubated with 90% DMSO for an additional 10 min in the dark. The generated fluorescence intensity was monitored with a Perkin Elmer fluorometer (Perkin Elmer Life and Analytical Sciences, Shelton, WA, USA) at 485/530 nm excitation/emission. Values were normalized to the protein content.

HTLA ER [2] = assay: MTS cell viability assay on HTLA ER NB cells; settings: for HTLA ER more tolerant to BPPB than HTLA 230: from IC50
Method: In this section, the strong anticancer effect of BPPB against ETO-sensitive HTLA 230 and multidrug-resistant (MDR) HTLA ER neuroblastoma (NB) cells previously reported was confirmed. Cell viability in HTLA 230 and HTLA ER cells exposed to increasing concentrations of BPPB for 24, 48, and 72 h was assessed by using the MTS essay, which is an efficient, eco- and user-friendly tool, commonly used to investigate the behaviour of cancer cells when exposed to specific treatments and how these treatments influence their growth and viability.
Following this, µM concentrations (x) were transformed in Log10 (x) (Figure 1e (HTLA 230) and Figure 1f (HTLA ER), traces with indicators and error bar). The nonlinear regression models of the Log10 (BPPB concentrations) vs. the normalized response (Hill Slope) shown in Figure 1e (HTLA 230) and Figure 1f (HTLA ER), traces without indicators, elaborated by GraphPad Prism software version 8.0.1 (GraphPad Software, Boston, MA, USA), gave us the IC50 values of BPPB for both cell populations at 24, 48, and 72 h of treatment.
HTLA 230 is a MYCN-amplified human stage-IV NB cell line, obtained from the G. Gaslini Institute, Genoa, Italy. The cytogenetic features of the HTLA 230 cell line include […] MYCN amplification, del(11)t(11;Y), balanced translocation t(1;17)(p36;q21), and dup(11p), which were previously described by Pezzolo et al.. Cells were periodically tested for mycoplasma contamination (Mycoplasma Reagent Set, Aurogene s.p.a, Pavia, Italy). After thawing and eight passages in the culture, cell morphology and proliferation were analyzed. […] Both cell populations were cultured in RPMI 1640 (Euroclone SpA, Pavia, Italy) supplemented with 10% fetal bovine serum (FBS; Euroclone, Pavia, Italy), 2 mM glutamine (Euroclone, Pavia, Italy), 1% penicillin/streptomycin (Euroclone, Pavia, Italy), 1% sodium pyruvate (Sigma-Aldrich, Sant Louis, MO, USA), and 1% amino acid solution (Sigma).
To determine the cytotoxic effects of BPPB, in vitro time- and dose-dependent experiments were carried out, as recently described. Briefly, cells were treated for 24, 48, and 72 h, with increasing concentrations (0.1–2.0 µM) of the compound. […] Cell cultures were carefully monitored before and during the experiments to ensure optimal cell density.
Cell viability was determined by using the CellTiter 96® AQueous One Solution Cell Proliferation MTS Assay (Promega, Madison, WI, USA), as previously described. MTS is a colorimetric method commonly used for determining cell viability. The cell survival rate, expressed as the cell viability percentage (%), was evaluated based on the experimental outputs of treated cells vs. the untreated ones (CTRs), and was calculated as follows: cell viability (%) = (OD treated cells − OD blank)/(OD untreated cells − OD blank) × 100%. IC50 values were calculated by GraphPad Prism 8.0.1 Software (GraphPad Software v8.0, San Diego, CA, USA), as detailed in the Results and Discussion in Section 2.

HTLA 230 = assay: DCFH assay of ROS (H2O2) production, HTLA 230; settings: for highest value of DCFH-positive cells: normalized for protein content, control = 1
Text: as §1, §2

## c1ccc([P+](CCCCCCCCCCCC[P+](c2ccccc2)(c2ccccc2)c2ccccc2)(c2ccccc2)c2ccccc2)cc1 [BPPB, 1,1-(1,12-dodecanediyl)-bis-[1,1,1]-triphenyl phosphonium di-bromide]
HTLA ER [1]; 24 h
  concentration significantly inducing ROS overproduction: 1.25 µM
  concentrations that did not induce significant changes in ROS levels: ≤ 1 µM
HTLA ER [1]; 24 h, normalized for protein content, control = 1
  highest value of DCFH-positive cells: 4.92
HTLA ER [1]; 24 h exposure
  increase in ROS with respect to the control: > 4 times
HTLA ER [1]; 48 h
  concentrations that did not induce significant changes in ROS levels: ≤ 1.25 µM
HTLA ER [1]; 48 h, normalized for protein content, control = 1
  highest value of DCFH-positive cells: 3.67
HTLA ER [1]; 72 h
  concentrations that did not induce significant changes in ROS levels: ≤ 0.75 µM
  maximal DCFH value in HTLA ER lower than in HTLA 230: 1.16 times
HTLA ER [1]; 72 h, normalized for protein content, control = 1
  maximal value of DCFH-positive cells: 4.99
HTLA ER [2]; 1.25 µM, 24 h
  cell viability: 42.5%
HTLA ER [2]; 1.25 µM, 72 h
  cell viability: 39.8%
HTLA ER [2]; 1.5 µM, 48 h
  cell viability: 39.4%
HTLA ER [2]; 2 µM, 24 h
  cell viability: 26.5%
HTLA ER [2]; 2 µM, 48 h
  cell viability: 33.1%
HTLA ER [2]; 2 µM, 72 h
  cell viability: 25.8%
HTLA ER [2]; 24 h
  concentration causing significant reduction in viability of cells: ≥ 0.75 µM
  HTLA ER more tolerant to BPPB than HTLA 230: 1.3 times
HTLA ER [2]; 24 h exposure, 0.1–2 µM, read-out: IC50 HTLA ER
  IC50: 1240 ± 61 nM
HTLA ER [2]; 48 h
  concentration causing significant reduction in viability of cells: ≥ 0.75 µM
  HTLA ER more tolerant to BPPB than HTLA 230: 2.9 times
HTLA ER [2]; 48 h exposure, 0.1–2 µM, read-out: IC50 HTLA ER
  IC50: 1350 ± 52 nM
HTLA ER [2]; 72 h
  concentration causing significant reduction in viability of cells: ≥ 1.00 µM
  HTLA ER more tolerant to BPPB than HTLA 230: 3.1 times
HTLA ER [2]; 72 h exposure, 0.1–2 µM, read-out: IC50 HTLA ER
  IC50: 1200 ± 69.5 nM
HTLA ER [2]; HTLA ER, 24 h, ETO value ref 16
  IC50 lower than that determined with ETO: 478 fold
HTLA ER [2]; over 24, 48, 72 h exposure, read-out: IC50 on MDR HTLA ER
  IC50: 1200 to 1350 nM
HTLA 230; 24 h
  concentration giving significant increase in ROS levels: ≥ 0.5 µM
  highest value of DCFH-positive cells: 2.96
HTLA 230; 24 h exposure
  increase in ROS with respect to the control: > 3 times
HTLA 230; 48 h
  average ROS production in HTLA 230 higher than in HTLA ER: 1.3 times
  concentration giving significant increase in ROS levels: ≥ 0.5 µM
  highest value of DCFH-positive cells: 3.05
HTLA 230; 72 h
  average ROS production in HTLA 230 higher than in HTLA ER: 1.4 times
  concentration giving significant increase in ROS levels: ≥ 0.25 µM
HTLA 230; 72 h, highest doses
  highest value of DCFH-positive cells: 5.8
HTLA 230; HTLA 230 and HTLA ER, 24 h
  more efficient in inducing ROS overproduction than TiO2-Ta nanoparticles: 9.4–23.4 fold
